From ChEMBL document CHEMBL6087488, “Development of the First-in-Class FEM1B-Recruiting Histone Deacetylase Degraders” (J Med Chem, 2025)
pEC50: −log10 of the molar value. The source made the active and inactive calls. The calls are words filed in the database; no cut-off is given here.

Columns and labels:
MM1.S [1] = assay: Antiproliferative activity against human MM1.S cells assessed as cell viability measured after 72 hrs by CellTiter-Glo cell viability assay; format: functional, cell-based; conditions: Homo sapiens, MM1.S, 72 h
[2] = molecular target: T1, Protein fem-1 homolog B/Histone deacetylase 1 (Homo sapiens, UniProt Q13547+Q9UK73); assay: PROTAC activity at FEM1B/HDAC1 in human MDA-MB-231 cell lysate assessed as protein degradation at 10 uM measured after 24 hrs by Western immunoassay relative to control; format: subcellular
MM1.S [3] = assay: Antiproliferative activity against human MM1.S cells assessed as cell viability up to 50 uM measured after 72 hrs incubation by MTT assay; format: functional
[4] = molecular target: T1, Protein fem-1 homolog B/Histone deacetylase 1; assay: PROTAC activity at FEM1B/HDAC1 in human MM1.S cell lysate assessed as neddylation-dependent protein degradation at 1 uM measured after 24 hrs by Western immunoassay; format: subcellular
MM1.S [5] = assay: Induction of apoptosis in human MM1.S cells assessed as increase in early apoptotic cells at 10 uM measured after 48 hrs by annexin V-FITC/PI staining based assay; format: functional, cell-based
MDA-MB-231 = assay: Antiproliferative activity against human MDA-MB-231 cells assessed as cell viability up to 50 uM measured after 72 hrs incubation by MTT assay relative to control; format: functional
MM1.S [6] = assay: Induction of apoptosis in human MM1.S cells assessed as increase in late apoptotic cells at 10 uM measured after 48 hrs by annexin V-FITC/PI staining based assay; format: functional, cell-based
U-87 MG = assay: Antiproliferative activity against human U-87 MG cells assessed as cell viability up to 50 uM measured after 72 hrs incubation by MTT assay relative to control; format: functional, U-87MG ATCC
[7] = molecular target: T1, Protein fem-1 homolog B/Histone deacetylase 1; assay: PROTAC activity at FEM1B/HDAC1 in human U-87 MG cell lysate assessed as protein degradation at 10 uM measured after 24 hrs by Western immunoassay relative to control; format: subcellular
MM1.S [8] = assay: Induction of cell cycle arrest in human MM1.S cells assessed as reduction in cells at […] phase at 10 uM measured after 48 hrs by propidium iodide based flow cytometry; format: functional
MV4-11 = assay: Antiproliferative activity against human MV4-11 cells assessed as cell viability measured after 72 hrs incubation by MTT assay; format: functional, cell-based; conditions: MV4-11, 72 h
[9] = molecular target: T1, Protein fem-1 homolog B/Histone deacetylase 1; assay: PROTAC activity at FEM1B/HDAC1 in human MV4-11 cell lysate assessed as protein degradation at 10 uM measured after 24 hrs by Western immunoassay relative to control; format: subcellular
MM1.S [10] = assay: Induction of cell cycle arrest in human MM1.s cells assessed as increase in cells at Sub-G1 phase at 10 uM measured after 48 hrs by propidium iodide based flow cytometry; format: functional
Histone deacetylase 4 = Histone deacetylase 4 (Homo sapiens, UniProt P56524); assay: Inhibition of human HDAC4 using Boc-Lys(Tfa)-AMC as substrate incubated for 90 mins by fluorescence based assay
Sequence of Histone deacetylase 4 (P56524 whole entry): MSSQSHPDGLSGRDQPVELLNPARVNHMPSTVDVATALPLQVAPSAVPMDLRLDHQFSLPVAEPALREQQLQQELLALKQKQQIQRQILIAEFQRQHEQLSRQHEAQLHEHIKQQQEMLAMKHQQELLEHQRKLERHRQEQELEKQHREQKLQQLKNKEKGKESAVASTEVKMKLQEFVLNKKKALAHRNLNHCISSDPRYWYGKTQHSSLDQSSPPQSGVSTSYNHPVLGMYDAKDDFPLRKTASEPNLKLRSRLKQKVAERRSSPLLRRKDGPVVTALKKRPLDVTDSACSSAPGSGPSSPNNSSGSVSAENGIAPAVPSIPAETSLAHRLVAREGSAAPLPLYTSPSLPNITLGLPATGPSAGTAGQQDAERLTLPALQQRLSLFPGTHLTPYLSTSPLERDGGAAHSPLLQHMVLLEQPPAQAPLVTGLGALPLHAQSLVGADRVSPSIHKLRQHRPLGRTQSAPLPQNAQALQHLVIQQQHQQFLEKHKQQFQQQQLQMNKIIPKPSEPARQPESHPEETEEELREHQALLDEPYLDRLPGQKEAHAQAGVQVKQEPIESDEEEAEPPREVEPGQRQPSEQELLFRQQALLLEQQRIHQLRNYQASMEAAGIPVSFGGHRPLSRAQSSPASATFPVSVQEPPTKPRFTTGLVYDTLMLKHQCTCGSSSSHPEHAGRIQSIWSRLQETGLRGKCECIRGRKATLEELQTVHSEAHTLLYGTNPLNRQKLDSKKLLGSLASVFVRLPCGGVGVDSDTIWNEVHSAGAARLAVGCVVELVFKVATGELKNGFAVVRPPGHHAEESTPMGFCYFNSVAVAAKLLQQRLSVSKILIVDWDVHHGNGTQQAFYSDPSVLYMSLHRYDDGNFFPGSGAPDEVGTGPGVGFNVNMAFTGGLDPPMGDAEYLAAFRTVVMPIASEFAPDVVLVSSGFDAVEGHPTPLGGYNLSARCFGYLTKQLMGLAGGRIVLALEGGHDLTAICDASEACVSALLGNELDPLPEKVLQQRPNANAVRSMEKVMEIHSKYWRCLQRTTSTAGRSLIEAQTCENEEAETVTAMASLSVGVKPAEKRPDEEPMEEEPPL

T1 sequence (Q13547 whole entry, looked up): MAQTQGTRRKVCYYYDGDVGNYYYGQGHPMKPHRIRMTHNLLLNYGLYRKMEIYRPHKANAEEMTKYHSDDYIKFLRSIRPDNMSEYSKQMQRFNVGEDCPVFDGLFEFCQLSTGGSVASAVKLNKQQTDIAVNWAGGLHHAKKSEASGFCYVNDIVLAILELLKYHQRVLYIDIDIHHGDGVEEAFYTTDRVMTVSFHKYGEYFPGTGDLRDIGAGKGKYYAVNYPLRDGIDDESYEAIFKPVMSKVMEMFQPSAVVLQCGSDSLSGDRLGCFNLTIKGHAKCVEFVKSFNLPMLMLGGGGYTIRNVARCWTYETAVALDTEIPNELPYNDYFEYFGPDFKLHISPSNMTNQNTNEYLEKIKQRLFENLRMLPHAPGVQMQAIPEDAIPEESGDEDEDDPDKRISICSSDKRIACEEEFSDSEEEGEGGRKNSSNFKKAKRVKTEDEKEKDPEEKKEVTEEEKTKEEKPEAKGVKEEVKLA
T1 sequence (Q9UK73 whole entry, looked up): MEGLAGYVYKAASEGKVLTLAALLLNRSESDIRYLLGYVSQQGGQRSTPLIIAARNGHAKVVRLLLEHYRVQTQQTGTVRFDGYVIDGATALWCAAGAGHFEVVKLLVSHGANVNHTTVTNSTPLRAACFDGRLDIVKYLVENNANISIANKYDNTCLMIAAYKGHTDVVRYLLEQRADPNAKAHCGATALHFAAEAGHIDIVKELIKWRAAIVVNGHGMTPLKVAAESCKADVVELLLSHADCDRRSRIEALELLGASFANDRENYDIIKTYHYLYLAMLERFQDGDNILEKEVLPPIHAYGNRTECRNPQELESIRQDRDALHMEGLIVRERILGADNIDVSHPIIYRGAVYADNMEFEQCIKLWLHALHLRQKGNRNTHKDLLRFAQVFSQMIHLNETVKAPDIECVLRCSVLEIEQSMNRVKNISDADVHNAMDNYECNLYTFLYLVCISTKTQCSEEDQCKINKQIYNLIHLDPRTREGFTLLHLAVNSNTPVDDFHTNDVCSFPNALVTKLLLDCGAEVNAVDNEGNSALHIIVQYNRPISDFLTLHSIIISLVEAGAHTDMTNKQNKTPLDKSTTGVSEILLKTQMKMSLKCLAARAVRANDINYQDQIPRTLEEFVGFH

Work on N#CCCN(C(=O)CCl)c1ccc2c(c1)OCCN2CC(=O)NCCOCCOCCOCCOCCC(=O)Nc1ccc(C(=O)NCCCCCCC(=O)NO)cc1 yielded a pEC50 (MM1.S [1]) of 4.37.

For N#CCCN(C(=O)CCl)c1ccc2c(c1)OCCN2CC(=O)NCCOCCOCCOCCC(=O)Nc1ccc(C(=O)NCCCCCCC(=O)NO)cc1, the pEC50 (MM1.S [1]) was 4.45.

With N#CCCN(C(=O)CCl)c1ccc2c(c1)OCCN2CC(=O)NCCCC(=O)Nc1ccc(C(=O)NCCCCCCC(=O)NO)cc1 the pEC50 (MM1.S [1]) was 4.99.

With CCC(=O)N(CCC#N)c1ccc2c(c1)OCCN2CC(=O)NCC(=O)Nc1ccc(C(=O)NCCCCCCC(=O)NO)cc1.O=C(O)C(F)(F)F the Activity [2] was “inactive”, the Activity (MM1.S [3]) was “<=25%” and the Activity [4] was “inactive”. For the same molecule, the Activity (MM1.S [5]) was “inactive”, the Activity (MDA-MB-231) was “<=25%” and the Activity (MM1.S [6]) was “inactive”. For the same molecule, the Activity (U-87 MG) was “<=25%”, the Activity [7] was “inactive” and the Activity (MM1.S [8]) was “inactive”. For the same molecule, the pEC50 (MV4-11) was 4.85, the Activity [9] was “inactive” and the Activity (MM1.S [10]) was “inactive”.

With O=C(CCCCCCC(=O)Nc1ccccc1)NO [VORINOSTAT] the IC50 (Histone deacetylase 4) was “Not_active”.

In the case of N#CCCN(C(=O)CCl)c1ccc2c(c1)OCCN2CC(=O)NCCOCCOCCC(=O)Nc1ccc(C(=O)NCCCCCCC(=O)NO)cc1, the pEC50 (MM1.S [1]) was 4.57.

With N#CCCN(C(=O)CCl)c1ccc2c(c1)OCCN2CC(=O)NC[C@H]1CC[C@H](C(=O)Nc2ccc(C(=O)NCCCCCCC(=O)NO)cc2)CC1 the pEC50 (MM1.S [1]) was 5.19.

With N#CCCN(C(=O)CCl)c1ccc2c(c1)OCCN2CC(=O)NCCCCCCCCCCCC(=O)Nc1ccc(C(=O)NCCCCCCC(=O)NO)cc1 the pEC50 (MM1.S [1]) was 5.82.
